# Measurements taken from patent publication US5786460A (Cheil Foods & Chemicals, Inc., priority 1993, dated 1998).
# Assays:
# Experiment in all cases: in vitro antifungal activity, twofold agar dilution method
# Type in all cases: cell-based
# Rhizopus stolonifer = settings: KCTC6062, KCTC No 6062, potato dextrose agar
# Method: (§1) The activities were determined by the twofold agar dilution method on potato dextrose agar medium.
# Aspergillus niger = settings: KCTC2119, KCTC No 2119, potato dextrose agar
# Method: as §1
# Trichophyton rubrum = settings: KCTC38484, KCTC No 38484, potato dextrose agar
# Method: as §1
# Epidennophyton floccosum = tested on: Epidennophyton floccosum
# Method: as §1
# Candida glabrata = settings: Nakaseomyces glabratus, KCTC1714; KCTC No 1714; potato dextrose agar
# Method: as §1
# Saccharomyces cerevisiae = settings: KCTC1213, KCTC No 1213, potato dextrose agar
# Method: as §1
# Candida albicans [1] = settings: KCTC1940, KCTC No 1940, potato dextrose agar
# Method: as §1
# Fusarium oxysporum = settings: KCTC6084, KCTC No 6084, potato dextrose agar
# Method: as §1
# Cryptococcus neoformans = settings: KCTC1197, KCTC No 1197, potato dextrose agar
# Method: as §1
# Candida albicans [2] = settings: KCTC38245
# Method: as §1
# Microsporum gypseum = settings: Nannizzia gypsea, KCTC1252; KCTC No 1252; potato dextrose agar
# Method: as §1
# Microsporum canis = settings: KCTC11621, KCTC No 11621, potato dextrose agar
# Method: as §1
# [3] = tested on: Trichophyton mentagrophyte; settings: KCTC6085, KCTC No 6085, potato dextrose agar
# Method: as §1
structure (smiles),measurement,setting,value
C[C@@H]1[C@H](O)[C@@H](C)/C=C/C=C/C=C/C=C/C=C/C=C/C=C/[C@H](O[C@@H]2O[C@H](C)[C@@H](O)[C@H](N)[C@@H]2O)C[C@@H]2O[C@](O)(C[C@@H](O)C[C@@H](O)[C@H](O)CC[C@@H](O)C[C@@H](O)CC(=O)O[C@H]1C)C[C@H](O)[C@H]2C(=O)O [Amphotericin-B],MIC,Rhizopus stolonifer,0.391 µg/mL
same,MIC,Aspergillus niger,0.196 µg/mL
same,MIC,Trichophyton rubrum,0.782 µg/mL
same,MIC,Epidennophyton floccosum,3.12 µg/mL
same,MIC,Candida glabrata,0.196 µg/mL
same,MIC,Saccharomyces cerevisiae,0.098 µg/mL
same,MIC,Candida albicans [1],0.782 µg/mL
same,MIC,Fusarium oxysporum,0.196 µg/mL
same,MIC,Cryptococcus neoformans,0.098 µg/mL
same,MIC,Candida albicans [2],0.782 µg/mL
same,MIC,Microsporum gypseum,0.196 µg/mL
same,MIC,Microsporum canis,0.391 µg/mL
same,MIC,[3],3.12 µg/mL
